Measured values taken from patent publication US20240246918A1, “COMPOUNDS AND COMPOSITIONS AS EIF4E INHIBITORS AND THE USES THEREOF” (Ribometrix, Inc., priority 2022, published 2024).

Legend:
[1] = target: T1, human eIF4E protein (Homo sapiens, UniProt P06730); experiment: Biochemical competitive binding assay (TR-FRET competition, EDA-m7GDP-ATTO-647N probe); conditions: read-out: hEIF4E TR-FRET IC50
T1 construct: purchased Novus NBP-45314
Method in brief: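 IC50 values come from 4-parameter fits of the normalized 665/620 nm TR-FRET ratio. Compound was first incubated 15 min with 4 nM recombinant His-eIF4E bound to 2.5 nM Eu-anti-His antibody, then 15 min with 5 nM m7GDP-ATTO-647N tracer, in pH 7.5 HEPES buffer with 100 mM KCl, Tween-20 and BSA.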

[2] = tested on: COLO 205 colorectal tumor cells; experiment: Tumor cell viability inhibition assay (CellTiter-Glo 2.0, 72 hours); type: cell-based; conditions: COLO 205 cell viability
Method in brief: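 IC50 derived by 4-parameter fitting after normalizing luminescence to DMSO and max-inhibition wells. Compounds tested as 11 concentrations in 4-fold steps on COLO 205 cells seeded at 1500 per well in RPMI-1640/10% FBS; ATP content measured with CellTiter-Glo 2.0 after 72 h.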

T1 sequence (P06730 whole entry): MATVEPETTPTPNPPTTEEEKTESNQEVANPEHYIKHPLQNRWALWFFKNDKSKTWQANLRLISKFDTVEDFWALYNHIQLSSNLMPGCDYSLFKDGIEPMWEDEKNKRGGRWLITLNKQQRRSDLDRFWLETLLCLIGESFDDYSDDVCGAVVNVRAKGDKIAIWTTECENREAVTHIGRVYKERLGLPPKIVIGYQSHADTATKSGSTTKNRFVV

SMILES | IC50 [1] | IC50 ([2]; Homo sapiens, COLO 205, 72 h) | IC50 [2]
Cc1cc(-c2cc(Cl)ccc2OCCn2c(C)nc3c(c2=O)C[C@@H](N2CCC[C@]4(C2)CC4(F)F)CC3(C)C)c2scc(C(=O)O)c2n1 (single isomer, unassigned) [Compound 440] | < 0.1 µM | 5 to 20 µM | 
Cc1cc(-c2cc(Cl)ccc2OCCn2c(C)nc3c(c2=O)C[C@@H](N2CCC[C@@]4(C2)CC4(F)F)CC3(C)C)c2scc(C(=O)O)c2n1 (single isomer, unassigned) [Compound 441] | < 0.1 µM | 5 to 20 µM | 
Cc1cc(-c2cc(Cl)ccc2OCCn2c(C)nc3c(c2=O)CC(N2CCC(OC(F)(F)F)CC2)CC3(C)C)c2scc(C(=O)O)c2n1 (single isomer, unassigned) [Compound 442, 7-(5-chloro-2-(2-(2,8,8-trimethyl-4-oxo-6-(4-(trifluoromethoxy)piperidin-1-yl)-5,6,7,8-tetrahydroquinazolin-3(4H)-yl)ethoxy)phenyl)-5-methylthieno[3,2-b]pyridine-3-carboxylic acid] | < 0.1 µM | 5 to 20 µM | 
Cc1cc(-c2cc(Cl)ccc2OCCn2c(C)nc3c(c2=O)CC(N2CCC(OC(F)(F)F)CC2)CC3(C)C)c2scc(C(=O)O)c2n1 (single isomer, unassigned) [Compound 443, 7-(5-chloro-2-(2-(2,8,8-trimethyl-4-oxo-6-(4-(trifluoromethoxy)piperidin-1-yl)-5,6,7,8-tetrahydroquinazolin-3(4H)-yl)ethoxy)phenyl)-5-methylthieno[3,2-b]pyridine-3-carboxylic acid] | < 0.1 µM |  | < 5 µM
Cc1cc(-c2cc(Cl)ccc2OCCn2c(C)nc3c(c2=O)C[C@H](N2CCC(c4ncccc4F)CC2)CC3)c2scc(C(=O)O)c2n1 (single isomer, unassigned) [Compound 444] | < 0.1 µM | < 5 µM | 
Cc1cc(-c2cc(Cl)ccc2OCCn2c(C)nc3c(c2=O)C[C@@H](N2CCC(c4ncccc4F)CC2)CC3)c2scc(C(=O)O)c2n1 (single isomer, unassigned) [Compound 445] | < 0.1 µM | < 5 µM | 
Cc1cc(-c2cc(Cl)ccc2OCCn2c(C)nc3c(c2=O)C[C@@H](N2CCC[C@@H](c4ccn(C)n4)C2)CC3)c2scc(C(=O)O)c2n1 (single isomer, unassigned) [Compound 446] | < 0.1 µM | > 20 µM | 
Cc1cc(-c2cc(Cl)ccc2OCCn2c(C)nc3c(c2=O)C[C@H](N2CCC[C@@H](c4ccn(C)n4)C2)CC3)c2scc(C(=O)O)c2n1 (single isomer, unassigned) [Compound 447] | < 0.1 µM | 5 to 20 µM | 
Cc1cc(-c2cc(Cl)ccc2OCCn2c(C)nc3c(c2=O)C[C@@H](N2CCC[C@H](c4ccn(C)n4)C2)CC3)c2scc(C(=O)O)c2n1 (single isomer, unassigned) [Compound 448] | < 0.1 µM | < 5 µM | 
Cc1cc(-c2cc(Cl)ccc2OCCn2c(C)nc3c(c2=O)C[C@@H](N2CCC(c4noc5ccc(F)cc45)CC2)CC3)c2scc(C(=O)O)c2n1 (single isomer, unassigned) [Compound 449] | < 0.1 µM | < 5 µM | 
COC1(C(F)(F)F)CCN([C@@H]2CCc3nc(C)n(CCOc4ccc(Cl)cc4-c4cc(C)nc5c(C(=O)O)csc45)c(=O)c3C2)CC1 (single isomer, unassigned) [Compound 450] | < 0.1 µM | < 5 µM | 
COC1(C(F)(F)F)CCN([C@H]2CCc3nc(C)n(CCOc4ccc(Cl)cc4-c4cc(C)nc5c(C(=O)O)csc45)c(=O)c3C2)CC1 (single isomer, unassigned) [Compound 451] | < 0.1 µM | < 5 µM | 
Cc1cc(-c2cc(Cl)ccc2OCCn2c(C)nc3c(c2=O)C[C@H](N2CCC(COC(F)(F)F)CC2)CC3)c2scc(C(=O)O)c2n1 (single isomer, unassigned) [Compound 452] | < 0.1 µM | < 5 µM | 
Cc1cc(-c2cc(Cl)ccc2OCCn2c(C)nc3c(c2=O)C[C@H](N2CCC(c4ccn(C)n4)CC2)CC3)c2scc(C(=O)O)c2n1 (single isomer, unassigned) [Compound 453] | < 0.1 µM | > 20 µM | 
Cc1cc(-c2cc(Cl)ccc2OCCn2c(C)nc3c(c2=O)C[C@@H](N2CCC(c4ccn(C)n4)CC2)CC3)c2scc(C(=O)O)c2n1 (single isomer, unassigned) [Compound 454] | < 0.1 µM | < 5 µM | 
Cc1cc(-c2cc(Cl)ccc2OCCn2c(C)nc3c(c2=O)C[C@H](N2CCC(c4cncc(S(=O)(=O)NC(C)(C)C)c4)CC2)CC3)c2scc(C(=O)O)c2n1 (single isomer, unassigned) [Compound 455] | < 0.1 µM | < 5 µM | 
Cc1cc(-c2cc(Cl)ccc2OCCn2c(C)nc3c(c2=O)C[C@@H](N2CCC(c4cncc(S(=O)(=O)NC(C)(C)C)c4)CC2)CC3)c2scc(C(=O)O)c2n1 (single isomer, unassigned) [Compound 456] | < 0.1 µM | 5 to 20 µM | 
Cc1cc(-c2cc(Cl)ccc2OCCn2c(C)nc3c(c2=O)C[C@H](N2CCC[C@H](OC(F)(F)F)C2)CC3)c2scc(C(=O)O)c2n1 (single isomer, unassigned) [Compound 457] | < 0.1 µM | < 5 µM | 

SMILES | IC50 [1] | IC50 ([2]; Homo sapiens, COLO 205, 72 h) | IC50 [2]
Cc1cc(-c2cc(Cl)ccc2OCCn2c(C)nc3c(c2=O)C[C@@H](N2CCC[C@@H](OC(F)(F)F)C2)CC3)c2scc(C(=O)O)c2n1 (single isomer, unassigned) [Compound 458] | < 0.1 µM | < 5 µM | 
Cc1cc(-c2cc(Cl)ccc2OCCn2c(C)nc3c(c2=O)CC(N2CCC(OC(F)(F)F)CC2)CC3)c2scc(C(=O)NS(=O)(=O)C(F)(F)F)c2n1 (single isomer, unassigned) [Compound 459] | < 0.1 µM | 5 to 20 µM | 
Cc1cc(-c2cc(Cl)ccc2OCCn2c(C)nc3c(c2=O)C[C@H](N2CCC(c4ncco4)CC2)CC3)c2scc(C(=O)O)c2n1 (single isomer, unassigned) [Compound 460] | < 0.1 µM | < 5 µM | 
Cc1cc(-c2cc(Cl)ccc2OCCn2c(C)nc3c(c2=O)C[C@@H](N2CCC(c4ncco4)CC2)CC3)c2scc(C(=O)O)c2n1 (single isomer, unassigned) [Compound 461] | < 0.1 µM | < 5 µM | 
Cc1cc(-c2cc(Cl)ccc2OCCn2c(C)nc3c(c2=O)C[C@H](N2CCC(c4ncn(C)n4)CC2)CC3)c2scc(C(=O)O)c2n1 (single isomer, unassigned) [Compound 462] | < 0.1 µM | < 5 µM | 
Cc1cc(-c2cc(Cl)ccc2OCCn2c(C)nc3c(c2=O)C[C@@H](N2CCC(c4ncn(C)n4)CC2)CC3)c2scc(C(=O)O)c2n1 (single isomer, unassigned) [Compound 463] | < 0.1 µM | < 5 µM | 
Cc1cc(-c2cc(Cl)ccc2OCCn2c(C)nc3c(c2=O)C[C@H](N2CCC[C@H](c4ncccc4F)C2)CC3)c2scc(C(=O)O)c2n1 (single isomer, unassigned) [Compound 464] | < 0.1 µM | < 5 µM | 
Cc1cc(-c2cc(Cl)ccc2OCCn2c(C)nc3c(c2=O)C[C@H](N2CCC[C@@H](c4ncccc4F)C2)CC3)c2scc(C(=O)O)c2n1 (single isomer, unassigned) [Compound 465] | < 0.1 µM | < 5 µM | 
Cc1cc(-c2cc(Cl)ccc2OCCn2c(C)nc3c(c2=O)C[C@@H](N2CCC[C@@H](c4ncccc4F)C2)CC3)c2scc(C(=O)O)c2n1 (single isomer, unassigned) [Compound 466] | < 0.1 µM | < 5 µM | 
Cc1cc(-c2cc(Cl)ccc2OCCn2c(C)nc3c(c2=O)C[C@@H](N2CCC[C@H](c4ncccc4F)C2)CC3)c2scc(C(=O)O)c2n1 (single isomer, unassigned) [Compound 467] | < 0.1 µM | < 5 µM | 
Cc1cc(-c2cc(Cl)ccc2OCCn2c(C)nc3c(c2=O)CC(N(C)C24CC5CC(CC(C5)C2)C4)CC3)c2scc(C(=O)O)c2n1 (single isomer, unassigned) [Compound 468] | < 0.1 µM | < 5 µM | 
Cc1cc(-c2cc(Cl)ccc2OCCn2c(C)nc3c(c2=O)C[C@H](N2CCCCC(F)(F)C2)CC3)c2scc(C(=O)O)c2n1 (single isomer, unassigned) [Compound 469] | < 0.1 µM | < 5 µM | 
Cc1cc(-c2cc(Cl)ccc2OCCn2c(C)nc3c(c2=O)C[C@@H](N2CCCCC(F)(F)C2)CC3)c2scc(C(=O)O)c2n1 (single isomer, unassigned) [Compound 470] | < 0.1 µM | < 5 µM | 
Cc1cc(-c2cc(Cl)ccc2OCCn2c(C)nc3c(c2=O)C[C@H](N2CCC[C@@H](OC(F)(F)F)C2)CC3)c2scc(C(=O)O)c2n1 (single isomer, unassigned) [Compound 471] | < 0.1 µM | < 5 µM | 
Cc1cc(-c2cc(Cl)ccc2OCCn2c(C)nc3c(c2=O)C[C@@H](N2CCC[C@H](OC(F)(F)F)C2)CC3)c2scc(C(=O)O)c2n1 (single isomer, unassigned) [Compound 472] | < 0.1 µM | < 5 µM | 
Cc1cc(-c2cc(Cl)ccc2OCCn2c(C)nc3c(c2=O)C[C@H](N2CCC(n4cccn4)CC2)CC3)c2scc(C(=O)O)c2n1 (single isomer, unassigned) [Compound 473] | < 0.1 µM | < 5 µM | 
Cc1cc(-c2cc(Cl)ccc2OCCn2c(C)nc3c(c2=O)C[C@@H](N2CCC(n4cccn4)CC2)CC3)c2scc(C(=O)O)c2n1 (single isomer, unassigned) [Compound 474] | < 0.1 µM | < 5 µM | 
Cc1cc(-c2cc(Cl)ccc2OCCn2c(C)nc3c(c2=O)C[C@H](N2CCC(c4nccs4)CC2)CC3)c2scc(C(=O)O)c2n1 (single isomer, unassigned) [Compound 475] | < 0.1 µM | < 5 µM | 
